Measurements from EP0645397B1, “Glutathione analogs and paralog panels comprising glutathione mimics” (TERRAPIN TECHNOLOGIES, INC., priority 1993, dated 1998).

Legend:
[1] = tested on: rat liver cytosolic GST isoenzymes; assay: Affinity chromatography of rat liver cytosol on GSH and GSH analog sorbents; recovery of protein and CDNB-conjugating activity in elution fractions; type: binding
Method: 0.66 g epoxy Sepharose™ 6B (Pharmacia) was swollen with 10 mL water for 15 min, then rinsed twice with 10 mL water in a 15 mL sintered glass funnel. A solution of 100-500 mg of the crude tripeptide in 5 mL ethanol and 10 mL water was adjusted to pH 11-12 with 6 N NaOH in a 20 mL scintillation vial with a polycone cap. The rinsed resin was added, and gently agitated overnight in a 37° water bath. The pH was checked the next day and brought back to pH 11-12 with 6 N NaOH if needed. After another day of agitation, the resin was filtered (the peptide-containing liquid was acidified with conc HCl, evaporated and saved) and rinsed three times with 10 mL water. The unfunctionalized epoxy groups were capped by soaking the resin in 10 mL of water which contained about 0.1 mL ethanolamine for 1 hr. The resin was then rinsed three times with 10 mL water, and a sample was removed for analysis. The remainder was rinsed with 10 mL of 0.1 M NaOAc, 0.5 M NaCl pH 4.0 buffer, followed by 10 mL of 0.1 M tris chloride, 0.5 M NaCl pH 8.0 buffer. The resin was stored at 4°C in this pH 8 buffer.
The recoveries of protein and GST (CDNB-conjugating) activity in the elution fractions after affinity purification of rat liver cytosolic GST isoenzymes on various compounds of the invention are shown in Table 3.

[2] = tested on: rat cytosolic GST isoenzymes; assay: Isoenzyme composition of sorbent eluates by SDS/PAGE and reverse-phase HPLC; type: binding
Method: Fractions eluted from the sorbents listed in Table 3 were analyzed by SDS/PAGE followed by silver staining. S-L-GSH and HxGSH sorbents bound proteins which corresponded to the previously observed electrophoretic band pattern of rat liver GST subunits. […] As the π-class GST 7-7 is found at low levels in rat liver cytosol, other rat tissues known to express higher levels of this isoenzyme also were tested.
Independent confirmation of this conclusion, at higher resolution, was provided by reverse-phase HPLC analyses of the GST isoenzymes in the eluates from different sorbents. […] Subunits 3, 4 and 6 are µ-class isoenzymes, subunits 1a, 1b, 2 and 8 are α-class isoenzymes, and subunit 7 is the π-class isoenzyme.

[3] = tested on: glyoxalase I; assay: SDS/PAGE detection of glyoxalase I-like protein in sorbent eluates; type: binding, rat; conditions: EDTA in buffers
Source text: A protein with a molecular migration similar to that of another GSH-dependent enzyme, glyoxalase I, was also present in the eluates from γE-C(Bz)-A and γE-C(Bz)-βA, but was not detected in eluates from the other sorbents. […] Glyoxalase I is known to be a metal-dependent enzyme, and the presence of EDTA in the buffers may have interfered with binding activity.

## N[C@@H](CCC(=O)N[C@@H](CSCc1ccccc1)C(=O)NCCC(=O)O)C(=O)O [γE-C(Bz)-βA, γ-glutamyl S-benzyl cysteinyl β-alanine]
[1]; Table 4, rat cytosolic GST isoenzymes
  Protein recovery: 1.0%
[1]; relative to HxGSH sorbent
  protein recovery seen with HxGSH: 33%
[1]; relative to HxGSH sorbent, after correcting for the inhibitory properties of the eluting ligand
  CDNB-conjugating activities: 52%
[2]; rat liver cytosol, silver staining
  SDS/PAGE band pattern of eluate: highly enriched band for presumptive µ-class isoenzymes
[2]; reverse-phase HPLC of eluates
  isoenzymes bound: selectively bound the µ-class isoenzymes 3 and 4
[3]
  protein with a molecular migration similar to glyoxalase I in eluate: present
